Test results as given in patent US9822147B2, “Methods of treating ophthalmic diseases using NPR-B agonists” (priority 2009, dated 2017).
pEC50: −log10 of the molar value. Numbered stars: 1 amine (or outer) side, 2 acyl side, 3 side chain; on linkers, the order of the positions; unused ones are H or OH. Square brackets hold non-standard residues; d marks the D form. Ends that are not written are not given here. Peptide text beside a SMILES is read from it. * marks the point of attachment. Sni = (S)-nipecotic acid, O=C([C@H]1CCCN([*:1])C1)[*:2]; Pro(4R-NH2) = N[C@H]1CN[C@H](C(=O)O)C1; dOrn(Me2) = CN(C)CCC[C@@H](N)C(=O)O; X2 = O=C([C@H]1CCCN([*:1])C1)[*:2]; X1 = CCCCCCCCN1CCC[C@H](C(=O)*)C1; dDap(Me2) = CN(C)C[C@@H](N)C(=O)O; Hyp = O=C(O)[C@@H]1C[C@@H](O)CN1; NMeL = CN[C@@H](CC(C)C)C(=O)O; Octanoyl = CCCCCCCC(=O)*; Occ = octanoic acid

Key:
NPR-B = target: T1, NPR-B (Homo sapiens, UniProt P20594); test: NPR-B induced production of cyclic GMP in human glaucoma trabecular meshwork cells (GTM-3); assay type: cell-based; conditions: group by EC50 and Emax (CNP = 100%); Table 4; read-out: Activity (group), NPR-B activation assayed with GTM-3 cells
T1 construct: a functional assay using endogenously NPR-B expressing GTM-3 cells; endogenous in cells; host or cells: GTM-3 (human glaucoma trabecular meshwork cells)
T1 sequence (P20594 23-1047): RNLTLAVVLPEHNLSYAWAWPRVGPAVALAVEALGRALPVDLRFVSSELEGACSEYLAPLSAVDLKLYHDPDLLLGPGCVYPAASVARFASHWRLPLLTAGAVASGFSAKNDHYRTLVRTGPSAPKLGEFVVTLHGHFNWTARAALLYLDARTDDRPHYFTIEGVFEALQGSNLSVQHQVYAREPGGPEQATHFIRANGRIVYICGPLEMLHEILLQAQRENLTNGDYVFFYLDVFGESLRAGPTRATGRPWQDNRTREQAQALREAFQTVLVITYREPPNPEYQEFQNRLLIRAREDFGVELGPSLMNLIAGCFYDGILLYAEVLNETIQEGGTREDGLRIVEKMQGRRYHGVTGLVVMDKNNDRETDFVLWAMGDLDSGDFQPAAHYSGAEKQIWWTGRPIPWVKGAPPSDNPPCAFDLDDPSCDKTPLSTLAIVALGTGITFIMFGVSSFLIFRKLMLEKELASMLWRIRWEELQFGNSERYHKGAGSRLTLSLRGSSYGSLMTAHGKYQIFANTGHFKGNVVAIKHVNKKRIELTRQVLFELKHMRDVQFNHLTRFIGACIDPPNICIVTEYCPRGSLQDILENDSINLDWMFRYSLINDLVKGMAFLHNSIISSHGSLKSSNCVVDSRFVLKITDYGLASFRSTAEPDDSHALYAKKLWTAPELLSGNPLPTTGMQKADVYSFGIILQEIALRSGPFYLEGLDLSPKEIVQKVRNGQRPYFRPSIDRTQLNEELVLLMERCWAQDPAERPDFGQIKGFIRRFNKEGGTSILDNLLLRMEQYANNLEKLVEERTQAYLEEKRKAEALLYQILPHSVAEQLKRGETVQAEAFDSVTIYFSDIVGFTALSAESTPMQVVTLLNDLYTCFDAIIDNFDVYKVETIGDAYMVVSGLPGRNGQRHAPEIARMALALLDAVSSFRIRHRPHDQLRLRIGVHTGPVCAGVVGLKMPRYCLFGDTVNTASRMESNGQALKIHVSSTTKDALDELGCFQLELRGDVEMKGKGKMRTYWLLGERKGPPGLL

rabbit eyes = test: Efficacy in the rabbit: intraocular pressure (IOP) after a single topical ocular drop; assay type: in vivo; conditions: dose 300 ug topical ocular, single 30 μL drop, up to 4 hr post dose, 1% as suspension (+) or solution (++) per mark on label
Protocol: A single 30 μL drop of a test item formulation was administered to rabbit eyes (n=8 to 10).
Intraocular pressure (IOP) was assessed in each eye at 0 hr, just prior to dosing, and again hourly for up to 4 hr post dose. The efficacy of a given formulation was determined based on the difference between the pretreatment TOP readings at 0 hr and the post treatment readings. A maximum percent reduction in IOP greater than 15% was noted by the “+” symbol. A maximum IOP reduction of less than 15% was assigned the “−” symbol.

## CCCCCCCC(=O)N1CCC[C@H](C(=O)N[C@@H](Cc2ccccc2)C(=O)N[C@H](CC(C)C)C(=O)N[C@@H](CC(C)C)C(=O)N2C[C@H](O)C[C@H]2C(=O)N(C)[C@@H](CC(C)C)C(=O)N[C@@H](CC(=O)O)C(=O)N[C@@H](CCCNC(=N)N)C(=O)N[C@H](C(N)=O)[C@@H](C)CC)C1 [JAL-1041, Occ-Sni-Phe-leu-Leu-Hyp-Nml-Asp-Arg-Ile-NH2] (HELM PEPTIDE1{[CCCCCCCC(=O)[*:2]].[O=C([C@H]1CCCN([*:1])C1)[*:2]].F.[dL].L.[Hyp].[meL].D.R.I.[am]}$$$$V2.0)
NPR-B
  pEC50: > 6.00
Rabbit eyes
  RIOP, maximum percent reduction in IOP: + (+ IOP reduction >15%)

## CCCCCCCC(=O)N[C@H](C)C(=O)N[C@@H](Cc1ccccc1)C(=O)N[C@H](CC(C)C)C(=O)N[C@@H](CC(C)C)C(=O)N1C[C@H](O)C[C@H]1C(=O)N(C)[C@@H](CC(C)C)C(=O)N[C@@H](CC(=O)O)C(=O)N[C@@H](CCCNC(=N)N)C(=O)N[C@H](C(N)=O)[C@@H](C)CC [JAL-1042, Occ-ala-Phe-leu-Leu-Hyp-Nml-Asp-Arg-Ile-NH2] (HELM PEPTIDE1{[CCCCCCCC(=O)[*:2]].[dA].F.[dL].L.[Hyp].[meL].D.R.I.[am]}$$$$V2.0)
NPR-B
  pEC50: > 6.00
Rabbit eyes
  RIOP, maximum percent reduction in IOP: − (− IOP reduction <15%)

## CCCCCCCC(=O)N[C@H](C)C(=O)N[C@@H](Cc1ccccc1)C(=O)N[C@H](CCCNC(=N)N)C(=O)N[C@@H](CC(C)C)C(=O)N1C[C@H](O)C[C@H]1C(=O)N[C@@H](CC(C)C)C(=O)N[C@@H](CC(=O)O)C(=O)N[C@@H](CCCNC(=N)N)C(=O)N[C@H](C(N)=O)[C@@H](C)CC [JAL-1047, Occ-ala-Phe-arg-Leu-Hyp-Leu-Asp-Arg-Ile-NH2] (HELM PEPTIDE1{[CCCCCCCC(=O)[*:2]].[dA].F.[dR].L.[Hyp].L.D.R.I.[am]}$$$$V2.0)
NPR-B
  pEC50: > 6.00
Rabbit eyes
  RIOP, maximum percent reduction in IOP: + (+ IOP reduction >15%)

## CCCCCCCC(=O)N[C@H](C)C(=O)N[C@@H](Cc1ccccc1)C(=O)N[C@H](CCCCN)C(=O)N[C@@H](CC(C)C)C(=O)N1C[C@H](O)C[C@H]1C(=O)N(C)[C@@H](CC(C)C)C(=O)N[C@@H](CC(=O)O)C(=O)N[C@@H](CCCNC(=N)N)C(=O)N[C@H](C(N)=O)[C@@H](C)CC [JAL-1060, Occ-ala-Phe-lys-Leu-Hyp-Nml-Asp-Arg-Ile-NH2] (HELM PEPTIDE1{[CCCCCCCC(=O)[*:2]].[dA].F.[dK].L.[Hyp].[meL].D.R.I.[am]}$$$$V2.0)
NPR-B
  pEC50: > 6.00
Rabbit eyes
  RIOP, maximum percent reduction in IOP: + (+ IOP reduction >15%)

## CCCCCCCC(=O)N[C@H](C)C(=O)N(C)[C@@H](Cc1ccccc1)C(=O)N[C@H](CCCNC(=N)N)C(=O)N[C@@H](CC(C)C)C(=O)N1C[C@H](O)C[C@H]1C(=O)N(C)[C@@H](CC(C)C)C(=O)N[C@@H](CC(=O)O)C(=O)N[C@@H](CCCNC(=N)N)C(=O)N[C@H](C(N)=O)[C@@H](C)CC [JAL-1085, Occ-ala-Nmf-arg-Leu-Hyp-Nml-Asp-Arg-Ile-NH2] (HELM PEPTIDE1{[CCCCCCCC(=O)[*:2]].[dA].[meF].[dR].L.[Hyp].[meL].D.R.I.[am]}$$$$V2.0)
NPR-B
  pEC50: > 6.00
Rabbit eyes
  RIOP, maximum percent reduction in IOP: + (+ IOP reduction >15%)

## CCCCCCCC(=O)N[C@H](C)C(=O)N[C@@H](Cc1ccccc1)C(=O)N[C@H](CCCNC(=N)N)C(=O)N[C@@H](CC(C)C)C(=O)N1C[C@H](O)C[C@H]1C(=O)N(C)[C@@H](CC(C)C)C(=O)N[C@@H](CC(=O)O)C(=O)N[C@@H](CCCNC(=N)N)C(=O)N[C@H](C(N)=O)[C@@H](C)CC [JAL-1086, Occ-ala-Phe-arg-Leu-Hyp-Nml-Asp-Arg-Ile-NH2] (HELM PEPTIDE1{[CCCCCCCC(=O)[*:2]].[dA].F.[dR].L.[Hyp].[meL].D.R.I.[am]}$$$$V2.0)
NPR-B
  pEC50: > 6.00
Rabbit eyes
  RIOP, maximum percent reduction in IOP: + (+ IOP reduction >15%)

## CCCCCCCC(=O)N1CCC[C@H](C(=O)N[C@@H](Cc2ccccc2)C(=O)N[C@H](CN(C)C)C(=O)N[C@@H](CC(C)C)C(=O)N2C[C@H](O)C[C@H]2C(=O)N(C)[C@@H](CC(C)C)C(=O)N[C@@H](CC(=O)O)C(=O)N[C@@H](CCCNC(=N)N)C(=O)N[C@H](C(N)=O)[C@@H](C)CC)C1 [JAL-1287, Occ-Sni-Phe-dap(Me2)-Leu-Hyp-Nml-Asp-Arg-Ile-NH2] (Octanoyl-[X2]F[dDap(Me2)]L[Hyp][NMeL]DRI-NH2)
NPR-B
  pEC50: > 6.00
Rabbit eyes
  RIOP, maximum percent reduction in IOP: + (+ IOP reduction >15%)

## CCCCCCCC(=O)N1CCC[C@H](C(=O)N[C@@H](Cc2ccccc2)C(=O)N[C@H](CCCN(C)C)C(=O)N[C@@H](CC(C)C)C(=O)N2C[C@H](O)C[C@H]2C(=O)N(C)[C@@H](CC(C)C)C(=O)N[C@@H](CC(=O)O)C(=O)N[C@@H](CCCNC(=N)N)C(=O)N[C@H](C(N)=O)[C@@H](C)CC)C1 [JAL-1289, Occ-Sni-Phe-orn(Me2)-Leu-Hyp-Nml-Asp-Arg-Ile-NH2] (Octanoyl-[X2]F[dOrn(Me2)]L[Hyp][NMeL]DRI-NH2)
NPR-B
  pEC50: > 6.00
Rabbit eyes
  RIOP, maximum percent reduction in IOP: + (+ IOP reduction >15%)

## CCCCCCCC(=O)N1CCC[C@H](C(=O)N[C@@H](Cc2ccccc2)C(=O)N[C@H](CC(C)C)C(=O)N[C@@H](CC(C)C)C(=O)N2C[C@H](N)C[C@H]2C(=O)N(C)[C@@H](CC(C)C)C(=O)N[C@@H](CC(=O)O)C(=O)N[C@@H](CCCNC(=N)N)C(=O)N[C@H](C(N)=O)[C@@H](C)CC)C1 [JAL-1295, Occ-Sni-Phe-leu-Leu-Tap-Nml-Asp-Arg-Ile-NH2] (Octanoyl-[X2]F[dL]L[Pro(4R-NH2)][NMeL]DRI-NH2)
NPR-B
  pEC50: > 6.00
Rabbit eyes
  RIOP, maximum percent reduction in IOP: + (+ IOP reduction >15%)

## CCCCCCCCN1CCC[C@H](C(=O)N[C@@H](Cc2ccccc2)C(=O)N[C@H](CN(C)C)C(=O)N[C@@H](CC(C)C)C(=O)N2C[C@H](N)C[C@H]2C(=O)N(C)[C@@H](CC(C)C)C(=O)N[C@@H](CC(=O)O)C(=O)N[C@@H](CCCNC(=N)N)C(=O)N[C@H](C(N)=O)[C@@H](C)CC)C1 [JAL-1369, Oct-Sni-Phe-dap(Me2)-Leu-Tap-Nml-Asp-Arg-Ile-NH2] (X1-F[dDap(Me2)]L[Pro(4R-NH2)][NMeL]DRI-NH2)
Rabbit eyes
  RIOP, maximum percent reduction in IOP: + (+ IOP reduction >15%)

## CCCCCCCCN1CCC[C@H](C(=O)N[C@@H](Cc2ccccc2)C(=O)N[C@H](CN(C)C)C(=O)N[C@@H](CC(C)C)C(=O)N2C[C@H](O)C[C@H]2C(=O)N(C)[C@@H](CC(C)C)C(=O)N[C@@H](CC(=O)O)C(=O)N[C@@H](CCCNC(=N)N)C(=O)N[C@H](C(N)=O)[C@@H](C)CC)C1 [JAL-1429, Oct-Sni-Phe-dap(Me2)-Leu-Hyp-Nml-Asp-Arg-Ile-NH2] (HELM PEPTIDE1{[CCCCCCCCN1CCC[C@H](C(=O)[*:2])C1].F.[CN(C)C[C@@H](N[*:1])C(=O)[*:2]].L.[Hyp].[meL].D.R.I.[am]}$$$$V2.0)
Rabbit eyes
  RIOP, maximum percent reduction in IOP: + (+ IOP reduction >15%)

## Occ-Sni-Phe-dap(Me2)-Leu-Hyp-Nml-Val-Arg-Ile-NH2 ([Occ][Sni]FXL[Hyp][NMeL]VRI-NH2; not fully specified (residue 4); printed as Occ-Sni-Phe-dap(Me2)-Leu-Hyp-Nml-Val-Arg-Ile-NH2) [JAL-1400]
Rabbit eyes
  RIOP, maximum percent reduction in IOP: + (+ IOP reduction >15%)
